Measured values: patent publication US10450378B2, “Cytotoxic and anti-mitotic compounds, and methods of using the same” (priority 2014, dated 2019)
Like-named read-outs stand apart in the source and are kept apart here.

What was measured:
Jurkat cell line = assay: Cytotoxicity of compounds of Formula I, Example 3 (CellTiter-Glo); format: cell-based, Human; conditions: for EC50: Homo sapiens, 72 h
Procedure: Compounds were tested on Jurkat and HCC1954 cell lines to assess their cytotoxicity. Compounds were titrated 1:3 starting at various concentrations (30 nM to 1000 nM). Control cytotoxin HTI-286 (see, e.g., U.S. Pat. No. 7,579,323) was also titrated 1:3 across starting with a 30 nM concentration. Plates were incubated for 3 days. Cell viability was quantified using 30 μL/well of 1× CellTiter-Glo reagent.
Each cell line was grown in its respective growth medium until seeding day. Cells were removed from their culture vessels and the resulting cell suspension was counted using the ViCell. Cells were then diluted in their growth medium to 25000/mL such that 100 μL/well=2500 cells/well. Each cell line was seeded in the inner 60 wells of 96-well black walled TC plates, outer wells filled with water. HCC1954 were seeded a day prior to assay set up. Cytotoxins were diluted as described below a 5× dose-response of each compound was prepared using RPMI+10% FBS in a deep-well 96-well plate. This “master” dilution plate was used for each cell line. 25 μL of the 5× dose responses was spiked into each cell line in triplicate. The plates were returned to the incubator and were incubated for 3 nights. After the 3 nights, cell viability was quantified using 30 μL/well of 1× CellTiter-glo reagent. After at least 10 minutes of incubation, the luminescence was measured using the SpectraMax (500 ms integration).

[1] = test system: Human T-cell leukemia cell line Jurkat; assay: Cellular cytotoxicity of compounds of Formula I, Example 3.1; format: cell-based; conditions: for EC50: Homo sapiens, Jurkat, read-out: EC50 (nM) Jurkat
Procedure: (§1) Compounds were tested on one or more of Human T-cell leukemia cell line Jurkat (ATCC: TIB-152); Human breast cancer cell lines HCC1954 (ATCC: CRL-2338) and JIMT-1 (DSMZ: ACC 589); Human Pancreatic cell line BxPC-3 (ATCC: CRL.1687), Human ovarian adenocarcinoma cell line SK-OV-3 (ATCC: HTB-77) and Human gastric carcinoma cell line NCI-N87 (ATCC: CRL. 5822); to assess their cytotoxicity.
(§2) Briefly, cells were obtained from commercial sources and cultured as described in the product sheet provided. Cells were removed from their culture vessels and the resulting cell suspension was counted using a ViCell (Beckman Coulter), then seeded at 25,000 cells/mL (2,500 cells/well) in Costar 3904 black walled, flat bottomed 96-well plates (cells were seeded in the inner 60 wells of 96-well TC plates, and outer edge wells filled with water). Adherent cell lines were incubated for one night at 37° C./5% CO2 atmosphere to allow the cells to attach to the microtiter plate surface, while suspension (Jurkat) cells were plated immediately before use. Cytotoxins were dissolved and serially diluted in dimethyl sulfoxide and then the solutions were added to complete growth medium at five-times the desired maximum final concentration. The cytotoxins were then titrated in growth medium, normally 1:3, over eight steps. A control with no test article present (growth medium alone) was included on each microtiter plate in sextuplicate. The prepared toxin titrations were added (25 μL/well) in triplicate to each cell line assayed. The cells and titrations were incubated at 37° C./5% CO2 for three nights (Jurkat) and five nights (all other cell lines). After the incubation, cell viability was measured using CellTiter-Glo® by adding 30 μL of prepared CellTiter-Glo® reagent to each assay well. The mixtures were incubated for at least twenty minutes in the dark prior to measuring emitted luminescence using a microplate luminometer (500 ms integration time). The collected relative luminescence units (RLU) were converted to % cytotoxicity using the growth medium alone control mentioned above (% Cytotoxicity=1-[well RLU/average medium alone control RLU]×100%).

[2] = test system: Human Pancreatic cell line BxPC-3; assay: as above; format: cell-based; conditions: five nights, CellTiter-Glo
Procedure: as §1, §2

[3] = test system: Human gastric carcinoma cell line NCI-N87; assay: as above; format: cell-based; conditions: five nights, CellTiter-Glo
Procedure: as §1, §2

[4] = 3 days incubation, CellTiter-Glo, read-out: EC50

## CC[C@H](C)[C@@H]([C@@H](CC(=O)N1CCC[C@H]1[C@H](OC)[C@@H](C)C(=O)N[C@@H](Cc1ccccc1)C(=O)NS(=O)(=O)c1ccc(NC(=O)C(F)(F)F)cc1)OC)N(C)C(=O)[C@@H](NC(=O)[C@H](C(C)C)N(C)C)C(C)C [Compound 10, (S)-2-((S)-2-(Dimethylamino)-3-methylbutanamido)-N-((3R,4S,5S)-3-methoxy-1-((S)-2-((1R,2R)-1-methoxy-2-methyl-3-oxo-3-((S)-1-oxo-3-phenyl-1-(4-(2,2,2-trifluoroacetamido)phenylsulfonamido)propan-2-ylamino)propyl)pyrrolidin-1-yl)-5-methyl-1-oxoheptan-4-yl)-N,3-dimethylbutanamide]
Jurkat cell line
  EC50: 45.3 nM
[1]
  EC50: 45.3 nM

## CC[C@H](C)[C@@H]([C@@H](CC(=O)N1CCC[C@H]1[C@H](OC)[C@@H](C)C(=O)N[C@@H](Cc1ccccc1)C(=O)NS(=O)(=O)c1ccc(N)cc1)OC)N(C)C(=O)[C@@H](NC(=O)[C@H](C(C)C)N(C)C)C(C)C [Compound 11, (S)-N-((3R,4S,5S)-1-((S)-2-((1R,2R)-3-((S)-1-(4-Aminophenylsulfonamido)-1-oxo-3-phenylpropan-2-ylamino)-1-methoxy-2-methyl-3-oxopropyl)pyrrolidin-1-yl)-3-methoxy-5-methyl-1-oxoheptan-4-yl)-2-((S)-2-(dimethylamino)-3-methylbutanamido)-N,3-dimethylbutanamide]
Jurkat cell line; [4]
  EC50: 52 nM
[1]; three nights, CellTiter-Glo
  EC50: 52 nM

## CN[C@H](C(=O)N[C@H](C(=O)N(C)[C@H](/C=C(\C)C(=O)O)C(C)C)C(C)(C)C)C(C)(C)c1ccccc1 [HTI-286, reference compound]
Jurkat cell line; titrated 1:3 starting with 30 nM
  Killing by control cytotoxin: successfully killed Jurkats at an expected concentration
[1]; stated for all cell lines of Example 3.1
  Killing by control cytotoxin: successfully killed all cell lines at an expected concentration

## CC[C@H](C)[C@@H]([C@@H](CC(=O)N1CCC[C@H]1[C@H](OC)[C@@H](C)C(=O)NS(=O)(=O)c1ccc(NC(=O)C(F)(F)F)cc1)OC)N(C)C(=O)[C@@H](NC(=O)[C@H](C(C)C)N(C)C)C(C)C [Compound 4, (S)-2-((S)-2-(Dimethylamino)-3-methylbutanamido)-N-((3R,4S,5S)-3-methoxy-1-((S)-2-((1R,2R)-1-methoxy-2-methyl-3-oxo-3-(4-(2,2,2-trifluoroacetamido)phenylsulfonamido)propyl)pyrrolidin-1-yl)-5-methyl-1-oxoheptan-4-yl)-N,3-dimethylbutanamide]
Jurkat cell line; [4]
  EC50: 18.1 nM
[1]; three nights, CellTiter-Glo
  EC50: 18.1 nM

## CC[C@H](C)[C@@H]([C@@H](CC(=O)N1CCC[C@H]1[C@H](OC)[C@@H](C)C(=O)NS(=O)(=O)c1ccc(N)cc1)OC)N(C)C(=O)[C@@H](NC(=O)[C@H]1CCCCN1C(C)C)C(C)C [Compound 16, (R)-N-((S)-1-(((3R,4S,5S)-1-((S)-2-((1R,2R)-3-((4-Aminophenyl)sulfonamido)-1-methoxy-2-methyl-3-oxopropyl)pyrrolidin-1-yl)-3-methoxy-5-methyl-1-oxoheptan-4-yl)(methyl)amino)-3-methyl-1-oxobutan-2-yl)-1-isopropylpiperidine-2-carboxamide]
[1]; three nights, CellTiter-Glo
  EC50: 11.5 nM
[2]
  EC50: 17 nM
[3]
  EC50: 14.4 nM

## CC[C@H](C)[C@@H]([C@@H](CC(=O)N1CCC[C@H]1[C@H](OC)[C@@H](C)C(=O)NS(=O)(=O)Cc1ccc(NC(=O)C(F)(F)F)cc1)OC)N(C)C(=O)[C@@H](NC(=O)[C@H](C(C)C)N(C)C)C(C)C [Compound 7, (S)-2-((S)-2-(Dimethylamino)-3-methylbutanamido)-N-((3R,4S,5S)-3-methoxy-1-((S)-2-((1R,2R)-1-methoxy-2-methyl-3-oxo-3-((4-(2,2,2-trifluoroacetamido)phenyl)methylsulfonamido)propyl)pyrrolidin-1-yl)-5-methyl-1-oxoheptan-4-yl)-N,3-dimethylbutanamide]
Jurkat cell line; [4]
  EC50: 29.9 nM
[1]; three nights, CellTiter-Glo
  EC50: 29.9 nM

## CC[C@H](C)[C@@H]([C@@H](CC(=O)N1CCC[C@H]1[C@H](OC)[C@@H](C)C(=O)N[C@@H](Cc1ccccc1)C(=O)NS(=O)(=O)c1ccc(CNC(=O)C(F)(F)F)cc1)OC)N(C)C(=O)[C@@H](NC(=O)[C@H](C(C)C)N(C)C)C(C)C [Compound 23, (S)-2-((S)-2-(Dimethylamino)-3-methylbutanamido)-N-((3R,4S,5S)-3-methoxy-1-((S)-2-((1R,2R)-1-methoxy-2-methyl-3-oxo-3-(((S)-1-oxo-3-phenyl-1-((4-((2,2,2-trifluoroacetamido)methyl)phenyl)sulfonamido)propan-2-yl)amino)propyl)pyrrolidin-1-yl)-5-methyl-1-oxoheptan-4-yl)-N,3-dimethylbutanamide]
[1]
  EC50: 11.8 nM
[2]
  EC50: 17.2 nM
[3]
  EC50: 11.3 nM

## CC[C@H](C)[C@@H]([C@@H](CC(=O)N1CCC[C@H]1[C@H](OC)[C@@H](C)C(=O)NS(=O)(=O)c1ccc(N)cc1)OC)N(C)C(=O)[C@@H](NC(=O)[C@@H](NC)C(C)C)C(C)C [Compound 20, (S)-N-((3R,4S,5S)-1-((S)-2-((1R,2R)-3-((4-Aminophenyl)sulfonamido)-1-methoxy-2-methyl-3-oxopropyl)pyrrolidin-1-yl)-3-methoxy-5-methyl-1-oxoheptan-4-yl)-N,3-dimethyl-2-((S)-3-methyl-2-(methylamino)butanamido)butanamide]
[1]; three nights, CellTiter-Glo
  EC50: > 100 nM
[2]
  EC50: > 300 nM
[3]
  EC50: > 300 nM

## CC[C@H](C)[C@@H]([C@@H](CC(=O)N1CCC[C@H]1[C@H](OC)[C@@H](C)C(=O)N[C@@H](Cc1ccccc1)C(=O)NS(=O)(=O)Cc1ccc(NC(=O)C(F)(F)F)cc1)OC)N(C)C(=O)[C@@H](NC(=O)[C@H](C(C)C)N(C)C)C(C)C [Compound 13, (S)-2-((S)-2-(Dimethylamino)-3-methylbutanamido)-N-((3R,4S,5S)-3-methoxy-1-((S)-2-((1R,2R)-1-methoxy-2-methyl-3-oxo-3-((S)-1-oxo-3-phenyl-1-(4-(2,2,2-trifluoroacetamido)phenylmethylsulfonamido)propan-2-ylamino)propyl)pyrrolidin-1-yl)-5-methyl-1-oxoheptan-4-yl)-N,3-dimethylbutanamide]
Jurkat cell line
  EC50: 20.9 nM
[1]
  EC50: 20.9 nM

## CC[C@H](C)[C@@H]([C@@H](CC(=O)N1CCC[C@H]1[C@H](OC)[C@@H](C)C(=O)N[C@@H](Cc1ccccc1)C(=O)NS(=O)(=O)Cc1ccc(CN)cc1)OC)N(C)C(=O)[C@@H](NC(=O)[C@H](C(C)C)N(C)C)C(C)C [Compound 28, (S)-N-((3R,4S,5S)-1-((S)-2-((1R,2R)-3-(((S)-1-(((4-(Aminomethyl)phenyl)methyl)sulfonamido)-1-oxo-3-phenylpropan-2-yl)amino)-1-methoxy-2-methyl-3-oxopropyl)pyrrolidin-1-yl)-3-methoxy-5-methyl-1-oxoheptan-4-yl)-2-((S)-2-(dimethylamino)-3-methylbutanamido)-N,3-dimethylbutanamide]
[1]; three nights, CellTiter-Glo
  EC50: ~100 nM
[2]
  EC50: > 100 nM
[3]
  EC50: > 100 nM
